Reference: ChEMBL document CHEMBL1201862, “PubChem BioAssay data set” (2004)
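Exposure lasted 48 hours, with cells grown in 96-well plates and compounds tested at five concentrations. The concentration for 50% growth inhibition is given as GI50.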 Activity calls are given as the source filed them. Cut-off read from the data, not from the text of the source: active = GI50 up to about 1.1 µM and inactive = higher.

Assays:
Assay in all cases: NCI anticancer screen, dose series, 48 h
DU-145 = system: DU-145
SF-268 = system: SF-268
NCI-H460 = system: NCI-H460
SK-MEL-28 = system: SK-MEL-28
BT-549 = system: BT-549
SF-295 = system: SF-295
U-251 = system: U-251
RPMI-8226 = system: RPMI-8226
CCRF-CEM = system: CCRF-CEM
SK-MEL-2 = system: SK-MEL-2
A498 = system: A498
A549 = system: A549
NCI-H23 = system: NCI-H23
Hs-578T = system: Hs-578T
MDA-N = system: MDA-N
MDA-MB-231 = system: MDA-MB-231
HL-60 = system: HL-60
SR = system: SR
SNB-19 = system: SNB-19
786-0 = system: 786-0

Measured: GI50

NS(=O)(=O)c1c(O)c2ccccc2oc1=O
inactive: DU-145 > 100 µM | SF-268 > 100 µM | NCI-H460 > 100 µM | SK-MEL-28 > 100 µM | BT-549 > 100 µM | SF-295 > 100 µM | U-251 > 100 µM | RPMI-8226 > 100 µM | CCRF-CEM > 100 µM | SK-MEL-2 > 100 µM | A498 > 100 µM | A549 > 100 µM | NCI-H23 > 100 µM | Hs-578T > 100 µM | MDA-N > 100 µM | MDA-MB-231 > 100 µM | HL-60 > 100 µM | SR > 100 µM | SNB-19 > 100 µM | 786-0 > 100 µM

N#CC(C#N)=NNc1ccc2cn[nH]c2c1
inactive: DU-145 29 µM | SF-268 36.3 µM | NCI-H460 57.3 µM | SK-MEL-28 > 100 µM | BT-549 > 100 µM | SF-295 > 100 µM | U-251 > 100 µM | RPMI-8226 26.2 µM | CCRF-CEM 13.6 µM | SK-MEL-2 > 100 µM | A498 > 100 µM | A549 > 100 µM | NCI-H23 19.1 µM | Hs-578T 24.8 µM | MDA-N 43.9 µM | MDA-MB-231 > 100 µM | HL-60 18.6 µM | SR 22.6 µM | SNB-19 > 100 µM | 786-0 43.6 µM

COc1ccc(-c2nc3ccc(C)cc3o2)c(OC)c1
inactive: DU-145 25.8 µM | SF-268 28.6 µM | NCI-H460 2.93 µM | SK-MEL-28 55.7 µM | BT-549 23.7 µM | SF-295 19.9 µM | U-251 1.63 µM | RPMI-8226 19.5 µM | CCRF-CEM 24.1 µM | SK-MEL-2 24.6 µM | A498 18.6 µM | A549 4.76 µM | NCI-H23 27.8 µM | Hs-578T 25.8 µM | MDA-N 23.9 µM | MDA-MB-231 19.8 µM | HL-60 20.4 µM | SR 14.3 µM | SNB-19 7.41 µM | 786-0 21.4 µM
